A short description of data set [1]: Water Solubility Assay (measured in pH 7.8 buffer).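 Note: precipitation onset detected as rise in absorbance at 650 nm across increasing concentrations, after shaking for 18 h, blank wells receiving DMSO only.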 Conditions: kinetic from dmso stock. The class given is physicochemical.
Procedure: The aqueous solubility of a compound of Formula I in buffer (pH 7.8) was measured by recording the onset of precipitation of the compound as a function of increasing concentration. The onset of precipitation, if it occurred, was detected by an increase in absorbance at 650 nm.
Assay Buffer: 35 mM HEPES pH 7.8
Stock solutions of Control and Test Compounds: 10 mM in 100% DMSO
10 mM stock solutions of control and test compounds were prepared in 100% DMSO.
Assay buffer (247.5 μl) was placed into flat bottomed transparent 96-well plate. For blank samples DMSO (2.5 μl) was added. For test and control samples 2.5 μl of the appropriate DMSO dilution stocks were added to the appropriate well. All test and control compounds were performed in triplicate.
The plates were sealed with adhesive plate seal and shaken at 250 rpm at 25° C. for 18 h on a plate shaker.
After incubation the plate seals were taken off and any bubbles observed in wells removed. The plates were read on a SpectraMaxM5 with a 5 s pre-shake at 650 nm.
Data files were transferred to the appropriate worksheet and the solubility range of the compounds was calculated from the data.
The target in data set [2] is Human recombinant cyclophilin A (Cyp A) (Homo sapiens, UniProt P62937). The data set can be described thus: Protease-free PPIase assay.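 Note: cis to trans isomerization of SUC-AAPF-pNA by 2 nM enzyme, read as absorbance at 330 nm over 300 s at 10 °C, catalytic rate corrected for uncatalyzed background.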
Where [3] appears, read: 35 mM HEPES buffer pH 7.8, 25 °C, aqueous buffer, pH 7.8 buffer, read-out: Water Solubility Assay.

In brackets after ≈: the same amount, converted by molar mass. Where two headings read alike, the source gives them in different places.

As usually defined, the solubility is how much of the substance goes into solution per volume. As usually defined, the Ki is a dissociation constant, usually derived from enzyme kinetics or from competition with a known ligand.

Chain of Human recombinant cyclophilin A (Cyp A) (P62937 whole entry): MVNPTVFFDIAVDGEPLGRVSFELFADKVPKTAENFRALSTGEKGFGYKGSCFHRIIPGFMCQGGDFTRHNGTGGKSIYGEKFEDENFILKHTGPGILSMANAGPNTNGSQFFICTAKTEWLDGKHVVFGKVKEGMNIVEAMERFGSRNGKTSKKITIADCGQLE

`CC[C@H]1NC(=O)[C@@H]([C@H](O)[C@H](C)CCN(C)Cc2ccccn2)N(C)C(=O)[C@@H](C(C)C)N(C)C(=O)[C@@H](CC(C)C)N(C)C(=O)[C@@H](CC(C)C)N(C)C(=O)[C@H](C)NC(=O)[C@@H](C)NC(=O)[C@@H](CC(C)C)N(C)C(=O)[C@@H](C(C)C)NC(=O)[C@H](CC(C)C)N(C)C(=O)[C@@H](C)N(C)C1=O` [Compound DA, [(3R,4R,5S)-4-Hydroxy-3-methyl-5-(methylamino)-1-({pyridin-2-ylmethyl}-methylamino)-hexanoic acid]^1[(R)-methyl-Sar]^3 cyclosporin A]: the solubility at 18 h in data set [1] (setting [3]) was in the range of 75 to 100 µM (≈ 98.3 to 131 µg/mL). Further, the Ki in data set [2] turned out to be 4.9 nM.

For `CC[C@H]1NC(=O)[C@@H]([C@H](O)[C@H](C)CCN(Cc2ccccn2)Cc2ccccn2)N(C)C(=O)[C@@H](C(C)C)N(C)C(=O)[C@@H](CC(C)C)N(C)C(=O)[C@@H](CC(C)C)N(C)C(=O)[C@H](C)NC(=O)[C@@H](C)NC(=O)[C@@H](CC(C)C)N(C)C(=O)[C@@H](C(C)C)NC(=O)[C@H](CC(C)C)N(C)C(=O)[C@@H](C)N(C)C1=O` [Compound DB, [(3R,4R,5S)-1-(Bis{pyridin-2-ylmethyl}amino)-4-hydroxy-3-methyl-5-(methylamino)-hexanoic acid]^1[(R)-methyl-Sar]^3 cyclosporin A], in data set [1] (setting [3]), the solubility at 18 h lay in the range of 75 to 100 µM (≈ 104 to 139 µg/mL). Also, the Ki in data set [2] was 7.4 nM.

For the compound `CC[C@H]1NC(=O)[C@@H]([C@H](O)[C@H](C)CCN(C)c2ccccc2)N(C)C(=O)[C@@H](C(C)C)N(C)C(=O)[C@@H](CC(C)C)N(C)C(=O)[C@@H](CC(C)C)N(C)C(=O)[C@H](C)NC(=O)[C@@H](C)NC(=O)[C@@H](CC(C)C)N(C)C(=O)[C@@H](C(C)C)NC(=O)[C@H](CC(C)C)N(C)C(=O)[C@@H](C)N(C)C1=O` [Compound DC, [(3R,4R,5S)-4-Hydroxy-3-methyl-5-(methylamino)-1-(methyl-phenyl-amino)-hexanoic acid]^1[(R)-methyl-Sar]^3 cyclosporin A], the solubility at 18 h in data set [1] (25 °C, pH 7.8, aqueous buffer) lay in the range of 10 to 25 µM (≈ 13 to 32.4 µg/mL). For the same compound, the Ki in data set [2] was found to be 6 nM.

Regarding `CC[C@H]1NC(=O)[C@@H]([C@H](O)[C@H](C)CCN(C)c2ccccn2)N(C)C(=O)[C@@H](C(C)C)N(C)C(=O)[C@@H](CC(C)C)N(C)C(=O)[C@@H](CC(C)C)N(C)C(=O)[C@H](C)NC(=O)[C@@H](C)NC(=O)[C@@H](CC(C)C)N(C)C(=O)[C@@H](C(C)C)NC(=O)[C@H](CC(C)C)N(C)C(=O)[C@@H](C)N(C)C1=O` [Compound DD, [(3R,4R,5S)-4-Hydroxy-3-methyl-5-(methylamino)-1-(methyl-pyridin-2-yl-amino)-hexanoic acid]^1[(R)-methyl-Sar]^3 cyclosporin A], the solubility at 18 h in data set [1] (25 °C, pH 7.8, aqueous buffer) is 25 to 50 µM (≈ 32.4 to 64.8 µg/mL). The Ki in data set [2] is 4.8 nM.

In the case of `CC[C@H]1NC(=O)[C@@H]([C@H](O)[C@H](C)CCN(C)CCS(N)(=O)=O)N(C)C(=O)[C@@H](C(C)C)N(C)C(=O)[C@@H](CC(C)C)N(C)C(=O)[C@@H](CC(C)C)N(C)C(=O)[C@H](C)NC(=O)[C@@H](C)NC(=O)[C@@H](CC(C)C)N(C)C(=O)[C@@H](C(C)C)NC(=O)[C@H](CC(C)C)N(C)C(=O)[C@@H](C)N(C)C1=O` [Compound DE], in data set [1] (25 °C, pH 7.8, aqueous buffer), the solubility at 18 h was > 100 µM. Moreover, the Ki in data set [2] amounted to 5.8 nM.

`CC[C@H]1NC(=O)[C@@H]([C@H](O)[C@H](C)CCN(C)Cc2cccnc2)N(C)C(=O)[C@@H](C(C)C)N(C)C(=O)[C@@H](CC(C)C)N(C)C(=O)[C@@H](CC(C)C)N(C)C(=O)[C@H](C)NC(=O)[C@@H](C)NC(=O)[C@@H](CC(C)C)N(C)C(=O)[C@@H](C(C)C)NC(=O)[C@H](CC(C)C)N(C)C(=O)[C@@H](C)N(C)C1=O` [Compound DF, [(3R,4R,5S)-4-Hydroxy-3-methyl-5-(methylamino)-1-({pyridin-3-ylmethyl}-methylamino)-hexanoic acid]^1[(R)-methyl-Sar]^3 cyclosporin A]: in data set [1] (setting [3]), the solubility at 18 h was > 100 µM. Besides, in data set [2], the Ki stood at 14 nM.

Take `CC[C@H]1NC(=O)[C@@H]([C@H](O)[C@H](C)CCN(C)Cc2ncccn2)N(C)C(=O)[C@@H](C(C)C)N(C)C(=O)[C@@H](CC(C)C)N(C)C(=O)[C@@H](CC(C)C)N(C)C(=O)[C@H](C)NC(=O)[C@@H](C)NC(=O)[C@@H](CC(C)C)N(C)C(=O)[C@@H](C(C)C)NC(=O)[C@H](CC(C)C)N(C)C(=O)[C@@H](C)N(C)C1=O` [Compound DG, [(3R,4R,5S)-4-Hydroxy-3-methyl-5-(methylamino)-1-({pyrimidin-2-ylmethyl}-methylamino)-hexanoic acid]^1[(R)-methyl-Sar]^3 cyclosporin A]: the solubility at 18 h in data set [1] (setting [3]) was > 100 µM. In data set [2], the Ki was 8.5 nM.

As to `CC[C@H]1NC(=O)[C@@H]([C@H](O)[C@H](C)CCN(C)Cc2cnccn2)N(C)C(=O)[C@@H](C(C)C)N(C)C(=O)[C@@H](CC(C)C)N(C)C(=O)[C@@H](CC(C)C)N(C)C(=O)[C@H](C)NC(=O)[C@@H](C)NC(=O)[C@@H](CC(C)C)N(C)C(=O)[C@@H](C(C)C)NC(=O)[C@H](CC(C)C)N(C)C(=O)[C@@H](C)N(C)C1=O` [Compound DH, [(3R,4R,5S)-4-Hydroxy-3-methyl-5-(methylamino)-1-({pyrazin-2-ylmethyl}-methylamino)-hexanoic acid]^1[(R)-methyl-Sar]^3 cyclosporin A], in data set [1] (setting [3]), the solubility at 18 h was > 100 µM. For the same compound, in data set [2], the Ki turned out to be 9.1 nM.

For `CC[C@H]1NC(=O)[C@@H]([C@H](O)[C@H](C)CCN(C)Cc2cncn2C)N(C)C(=O)[C@@H](C(C)C)N(C)C(=O)[C@@H](CC(C)C)N(C)C(=O)[C@@H](CC(C)C)N(C)C(=O)[C@H](C)NC(=O)[C@@H](C)NC(=O)[C@@H](CC(C)C)N(C)C(=O)[C@@H](C(C)C)NC(=O)[C@H](CC(C)C)N(C)C(=O)[C@@H](C)N(C)C1=O` [Compound DI, [(3R,4R,5S)-4-Hydroxy-3-methyl-5-(methylamino)-1-({3-methyl-3H-imidazol-4-ylmethyl}-methylamino)-hexanoic acid]^1[(R)-methyl-Sar]^3 cyclosporin A], the solubility at 18 h in data set [1] (setting [3]) is > 100 µM. Besides, the Ki in data set [2] turned out to be 4.3 nM.

On to `CC[C@H]1NC(=O)[C@@H]([C@H](O)[C@H](C)CCN(C)Cc2ccnn2C)N(C)C(=O)[C@@H](C(C)C)N(C)C(=O)[C@@H](CC(C)C)N(C)C(=O)[C@@H](CC(C)C)N(C)C(=O)[C@H](C)NC(=O)[C@@H](C)NC(=O)[C@@H](CC(C)C)N(C)C(=O)[C@@H](C(C)C)NC(=O)[C@H](CC(C)C)N(C)C(=O)[C@@H](C)N(C)C1=O` [Compound DJ, [(3R,4R,5S)-4-Hydroxy-3-methyl-5-(methylamino)-1-({2-methyl-2H-pyrazol-3-ylmethyl}-methylamino)-hexanoic acid]^1[(R)-methyl-Sar]^3 cyclosporin A], for which the solubility at 18 h in data set [1] (setting [3]) is > 100 µM. Moreover, the Ki in data set [2] turned out to be 5.4 nM.

Regarding `CC[C@H]1NC(=O)[C@@H]([C@H](O)[C@H](C)CCN(C)CC(C)C#N)N(C)C(=O)[C@@H](C(C)C)N(C)C(=O)[C@@H](CC(C)C)N(C)C(=O)[C@@H](CC(C)C)N(C)C(=O)[C@H](C)NC(=O)[C@@H](C)NC(=O)[C@@H](CC(C)C)N(C)C(=O)[C@@H](C(C)C)NC(=O)[C@H](CC(C)C)N(C)C(=O)[C@@H](C)N(C)C1=O` (stereo partly drawn) [Compound DK, [(3R,4R,5S)-1-({2-Cyano-propyl}-methyl-amino)-4-hydroxy-3-methyl-5-(methylamino)-hexanoic acid]^1[(R)-methyl-Sar]^3 cyclosporin A], the solubility at 18 h in data set [1] (25 °C, pH 7.8, aqueous buffer) is > 100 µM. Moreover, the Ki in data set [2] came to 13 nM.

These data come from patent US20160039880A1 (priority 2012, published 2016).
